# Source: the CheMixHub viscosity set
# ± gives the uncertainty stated by the source.
# Test: xn = mol fraction of the nth substance listed
# Conditions: 101 kPa
smiles,measurement,setting,value
C=CCN=C=S + CCN(CC)c1ccccc1,viscosity,"303.15 K, x1 = 0.25",1.248 ± 0.033 mPa·s
same,viscosity,"303.15 K, x1 = 0.5",1.007 ± 0.027 mPa·s
same,viscosity,"303.15 K, x1 = 0.7",0.857 ± 0.023 mPa·s
same,viscosity,"303.15 K, x1 = 0.75",0.822 ± 0.022 mPa·s
same,viscosity,"303.15 K, x1 = 0.8",0.785 ± 0.021 mPa·s
C=CCN=C=S + CCNc1ccccc1,viscosity,"298.15 K, x1 = 0.2366",5.955 ± 0.16 mPa·s
same,viscosity,"298.15 K, x1 = 0.4021",18.81 ± 0.51 mPa·s
same,viscosity,"298.15 K, x1 = 0.4673",37.55 ± 0.99 mPa·s
same,viscosity,"298.15 K, x1 = 0.5",48.24 ± 1.3 mPa·s
same,viscosity,"298.15 K, x1 = 0.5346",29.45 ± 0.8 mPa·s
same,viscosity,"298.15 K, x1 = 0.6032",7.747 ± 0.23 mPa·s
same,viscosity,"298.15 K, x1 = 0.7385",2.277 ± 0.064 mPa·s
same,viscosity,"323.15 K, x1 = 0.2366",2.83 ± 0.076 mPa·s
same,viscosity,"323.15 K, x1 = 0.4021",6.28 ± 0.19 mPa·s
same,viscosity,"323.15 K, x1 = 0.4673",9.92 ± 0.34 mPa·s
same,viscosity,"323.15 K, x1 = 0.5",11.98 ± 0.43 mPa·s
same,viscosity,"323.15 K, x1 = 0.5346",8.399 ± 0.28 mPa·s
same,viscosity,"323.15 K, x1 = 0.6032",3.234 ± 0.088 mPa·s
same,viscosity,"323.15 K, x1 = 0.7385",1.313 ± 0.034 mPa·s
OCCO + CCO,viscosity,"298.15 K, x1 = 0.1",1.439 ± 0.038 mPa·s
same,viscosity,"298.15 K, x1 = 0.2",1.908 ± 0.051 mPa·s
same,viscosity,"298.15 K, x1 = 0.3",2.546 ± 0.068 mPa·s
same,viscosity,"298.15 K, x1 = 0.3778",3.567 ± 0.027 mPa·s
same,viscosity,"298.15 K, x1 = 0.4",3.382 ± 0.091 mPa·s
same,viscosity,"298.15 K, x1 = 0.5",4.487 ± 0.12 mPa·s
same,viscosity,"298.15 K, x1 = 0.6",5.986 ± 0.16 mPa·s
same,viscosity,"298.15 K, x1 = 0.7",7.908 ± 0.21 mPa·s
same,viscosity,"298.15 K, x1 = 0.8",10.41 ± 0.28 mPa·s
same,viscosity,"298.15 K, x1 = 0.9",13.61 ± 0.37 mPa·s
same,viscosity,"308.15 K, x1 = 0.1",1.05 ± 0.028 mPa·s
same,viscosity,"308.15 K, x1 = 0.2",1.524 ± 0.04 mPa·s
same,viscosity,"308.15 K, x1 = 0.3",1.991 ± 0.053 mPa·s
same,viscosity,"308.15 K, x1 = 0.3778",2.688 ± 0.021 mPa·s
same,viscosity,"308.15 K, x1 = 0.4",2.581 ± 0.069 mPa·s
same,viscosity,"308.15 K, x1 = 0.5",3.346 ± 0.089 mPa·s
same,viscosity,"308.15 K, x1 = 0.6",4.363 ± 0.12 mPa·s
same,viscosity,"308.15 K, x1 = 0.7",5.645 ± 0.15 mPa·s
same,viscosity,"308.15 K, x1 = 0.8",7.295 ± 0.2 mPa·s
same,viscosity,"308.15 K, x1 = 0.9",9.374 ± 0.25 mPa·s
same,viscosity,"318.15 K, x1 = 0.1",0.9744 ± 0.026 mPa·s
same,viscosity,"318.15 K, x1 = 0.2",1.253 ± 0.033 mPa·s
same,viscosity,"318.15 K, x1 = 0.3",1.604 ± 0.043 mPa·s
same,viscosity,"318.15 K, x1 = 0.3778",2.13 ± 0.017 mPa·s
same,viscosity,"318.15 K, x1 = 0.4",2.053 ± 0.055 mPa·s
same,viscosity,"318.15 K, x1 = 0.5",2.598 ± 0.069 mPa·s
same,viscosity,"318.15 K, x1 = 0.6",3.325 ± 0.089 mPa·s
same,viscosity,"318.15 K, x1 = 0.7",4.216 ± 0.11 mPa·s
same,viscosity,"318.15 K, x1 = 0.8",5.306 ± 0.14 mPa·s
same,viscosity,"318.15 K, x1 = 0.9",6.652 ± 0.18 mPa·s
S=C=S + CCO,viscosity,"298.15 K, x1 = 0.1096",0.9448 ± 0.0072 mPa·s
same,viscosity,"298.15 K, x1 = 0.1264",0.9535 ± 0.0073 mPa·s
same,viscosity,"298.15 K, x1 = 0.1726",0.9065 ± 0.007 mPa·s
same,viscosity,"298.15 K, x1 = 0.2241",0.8407 ± 0.0065 mPa·s
same,viscosity,"298.15 K, x1 = 0.2832",0.7621 ± 0.006 mPa·s
same,viscosity,"298.15 K, x1 = 0.4039",0.6659 ± 0.0054 mPa·s
same,viscosity,"298.15 K, x1 = 0.5848",0.5669 ± 0.0048 mPa·s
same,viscosity,"298.15 K, x1 = 0.6266",0.5466 ± 0.0047 mPa·s
same,viscosity,"298.15 K, x1 = 0.7329",0.4926 ± 0.0043 mPa·s
CCC(=O)c1ccccc1 + CCOC(C)=O,viscosity,"303.15 K, x1 = 0.0764",0.4784 ± 0.01 mPa·s
same,viscosity,"303.15 K, x1 = 0.1569",0.5399 ± 0.012 mPa·s
same,viscosity,"303.15 K, x1 = 0.2419",0.6088 ± 0.013 mPa·s
same,viscosity,"303.15 K, x1 = 0.3317",0.6897 ± 0.015 mPa·s
same,viscosity,"303.15 K, x1 = 0.4268",0.7853 ± 0.017 mPa·s
same,viscosity,"303.15 K, x1 = 0.5276",0.8977 ± 0.02 mPa·s
same,viscosity,"303.15 K, x1 = 0.6347",1.034 ± 0.023 mPa·s
same,viscosity,"303.15 K, x1 = 0.7486",1.199 ± 0.027 mPa·s
same,viscosity,"303.15 K, x1 = 0.8701",1.398 ± 0.032 mPa·s
same,viscosity,"308.15 K, x1 = 0.0764",0.4618 ± 0.01 mPa·s
same,viscosity,"308.15 K, x1 = 0.1569",0.519 ± 0.011 mPa·s
same,viscosity,"308.15 K, x1 = 0.2419",0.5844 ± 0.013 mPa·s
same,viscosity,"308.15 K, x1 = 0.3317",0.6608 ± 0.015 mPa·s
same,viscosity,"308.15 K, x1 = 0.4268",0.7493 ± 0.017 mPa·s
same,viscosity,"308.15 K, x1 = 0.5276",0.8602 ± 0.019 mPa·s
same,viscosity,"308.15 K, x1 = 0.6347",0.9953 ± 0.022 mPa·s
same,viscosity,"308.15 K, x1 = 0.7486",1.153 ± 0.026 mPa·s
same,viscosity,"308.15 K, x1 = 0.8701",1.333 ± 0.03 mPa·s
same,viscosity,"313.15 K, x1 = 0.0764",0.4426 ± 0.0096 mPa·s
same,viscosity,"313.15 K, x1 = 0.1569",0.4991 ± 0.011 mPa·s
same,viscosity,"313.15 K, x1 = 0.2419",0.5564 ± 0.012 mPa·s
same,viscosity,"313.15 K, x1 = 0.3317",0.6277 ± 0.014 mPa·s
same,viscosity,"313.15 K, x1 = 0.4268",0.7199 ± 0.016 mPa·s
same,viscosity,"313.15 K, x1 = 0.5276",0.8175 ± 0.018 mPa·s
same,viscosity,"313.15 K, x1 = 0.6347",0.9454 ± 0.021 mPa·s
same,viscosity,"313.15 K, x1 = 0.7486",1.095 ± 0.025 mPa·s
same,viscosity,"313.15 K, x1 = 0.8701",1.261 ± 0.029 mPa·s
S=C=S + CCOC(C)=O,viscosity,"298.15 K, x2 = 0.1445",0.367 ± 0.005 mPa·s
same,viscosity,"298.15 K, x2 = 0.3581",0.389 ± 0.005 mPa·s
same,viscosity,"298.15 K, x2 = 0.6307",0.416 ± 0.006 mPa·s
S=C=S + CCOCC,viscosity,"298.15 K, x2 = 0.1341",0.338 ± 0.005 mPa·s
same,viscosity,"298.15 K, x2 = 0.3497",0.306 ± 0.004 mPa·s
same,viscosity,"298.15 K, x2 = 0.6338",0.269 ± 0.004 mPa·s
CCC(=O)c1ccccc1 + CCOCCO,viscosity,"303.15 K, x1 = 0.0756",1.562 ± 0.064 mPa·s
same,viscosity,"303.15 K, x1 = 0.1554",1.555 ± 0.064 mPa·s
same,viscosity,"303.15 K, x1 = 0.2397",1.547 ± 0.064 mPa·s
same,viscosity,"303.15 K, x1 = 0.3291",1.54 ± 0.063 mPa·s
same,viscosity,"303.15 K, x1 = 0.4239",1.532 ± 0.063 mPa·s
same,viscosity,"303.15 K, x1 = 0.5246",1.526 ± 0.063 mPa·s
same,viscosity,"303.15 K, x1 = 0.6319",1.522 ± 0.063 mPa·s
same,viscosity,"303.15 K, x1 = 0.7464",1.517 ± 0.063 mPa·s
same,viscosity,"303.15 K, x1 = 0.8688",1.515 ± 0.063 mPa·s
same,viscosity,"308.15 K, x1 = 0.0756",1.466 ± 0.06 mPa·s
same,viscosity,"308.15 K, x1 = 0.1554",1.464 ± 0.06 mPa·s
same,viscosity,"308.15 K, x1 = 0.2397",1.462 ± 0.06 mPa·s
same,viscosity,"308.15 K, x1 = 0.3291",1.461 ± 0.06 mPa·s
same,viscosity,"308.15 K, x1 = 0.4239",1.461 ± 0.06 mPa·s
same,viscosity,"308.15 K, x1 = 0.5246",1.461 ± 0.06 mPa·s
same,viscosity,"308.15 K, x1 = 0.6319",1.462 ± 0.06 mPa·s
same,viscosity,"308.15 K, x1 = 0.7464",1.464 ± 0.061 mPa·s
same,viscosity,"308.15 K, x1 = 0.8688",1.466 ± 0.061 mPa·s
same,viscosity,"313.15 K, x1 = 0.0756",1.366 ± 0.056 mPa·s
same,viscosity,"313.15 K, x1 = 0.1554",1.369 ± 0.056 mPa·s
same,viscosity,"313.15 K, x1 = 0.2397",1.372 ± 0.056 mPa·s
same,viscosity,"313.15 K, x1 = 0.3291",1.376 ± 0.057 mPa·s
same,viscosity,"313.15 K, x1 = 0.4239",1.381 ± 0.057 mPa·s
same,viscosity,"313.15 K, x1 = 0.5246",1.387 ± 0.057 mPa·s
same,viscosity,"313.15 K, x1 = 0.6319",1.394 ± 0.058 mPa·s
same,viscosity,"313.15 K, x1 = 0.7464",1.401 ± 0.058 mPa·s
same,viscosity,"313.15 K, x1 = 0.8688",1.41 ± 0.058 mPa·s
same,viscosity,"318.15 K, x1 = 0.0756",1.279 ± 0.053 mPa·s
same,viscosity,"318.15 K, x1 = 0.1554",1.285 ± 0.053 mPa·s
same,viscosity,"318.15 K, x1 = 0.2397",1.291 ± 0.053 mPa·s
same,viscosity,"318.15 K, x1 = 0.3291",1.3 ± 0.053 mPa·s
same,viscosity,"318.15 K, x1 = 0.4239",1.309 ± 0.054 mPa·s
same,viscosity,"318.15 K, x1 = 0.5246",1.32 ± 0.055 mPa·s
same,viscosity,"318.15 K, x1 = 0.6319",1.331 ± 0.055 mPa·s
same,viscosity,"318.15 K, x1 = 0.7464",1.343 ± 0.056 mPa·s
same,viscosity,"318.15 K, x1 = 0.8688",1.357 ± 0.056 mPa·s
